Key:
RPE1 cells = assay: PtdIns(4,5)P2 level by flow cytometry; assay type: cell-based; conditions: overnight
Procedure: CUGAUCAAGAU G A -3 and PIKfyve#2 siRNA 5'-
[…] -3'. siRNA oligonucleotides were purchased from Genolution, Sigma- Aldrich and Integrated DNA Technologies.
These siRNAs were transfected into the cell using lipofectamine RNAiMAX (Invitrogen, 13778150) following manufacturer ’s protocol.
RPE1 cells were treated with UNI418 at indicated concentration for over-night.
After that, the image was taken by EVOS M5000 (Thermo Fisher Scientific).
RPE1 cells were treated with UNI418 at the different concentration during the time. Live cell images were taken by Lionheart LX Automated Microscope and analyzed in Gen5 (Agilent).
RPE1 cells were treated with indicated doses of UNI418 overnight. To analyze PIP2 level by flow cytometry, trypsinized cells were fixed with 4% paraformaldehyde for 10 min at room temperature. […] Cells were washed three times with 1% BSA-PBS and incubated with the fluorescence- conjugated secondary antibody Alexa Fluor® 488 AffiniPure Goat Anti-Mouse IgG (H+L) (Jackson ImmunoResearch,111- 545- 003) for 1h at room temperature analyzed by BD Accuri C6 Plus flow cytometer (BD Biosciences). […]
PtdIns(4,5)P2 level was analyzed by flow cytometry. […] Significance was determined by Student’s t-test, **p < 0.01. b Representative flow cytometry graph for PIP2 level after indicated dose of […]

PIP5K1B = PIP5K1B (Homo sapiens, UniProt O14986); assay: SelectScreen Kinase Profiling Service (single point and 10 point titration); assay type: biochemical
PIP5K1B, sequence (O14986 whole entry): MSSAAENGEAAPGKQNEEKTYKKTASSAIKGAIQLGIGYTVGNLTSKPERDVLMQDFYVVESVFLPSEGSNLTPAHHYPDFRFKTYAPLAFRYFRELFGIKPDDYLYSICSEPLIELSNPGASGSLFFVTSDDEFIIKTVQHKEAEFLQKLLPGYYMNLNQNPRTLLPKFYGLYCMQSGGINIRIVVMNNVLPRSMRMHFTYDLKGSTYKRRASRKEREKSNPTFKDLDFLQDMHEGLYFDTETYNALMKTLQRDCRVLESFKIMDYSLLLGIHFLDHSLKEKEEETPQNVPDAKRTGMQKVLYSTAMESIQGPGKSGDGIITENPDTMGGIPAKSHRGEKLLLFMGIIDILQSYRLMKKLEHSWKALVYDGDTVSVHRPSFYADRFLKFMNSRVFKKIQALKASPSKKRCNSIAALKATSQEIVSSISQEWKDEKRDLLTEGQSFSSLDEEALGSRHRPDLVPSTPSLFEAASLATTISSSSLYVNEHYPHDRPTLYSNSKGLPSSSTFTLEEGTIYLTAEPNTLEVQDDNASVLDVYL
Excerpt: (§1) UNI418 has a core structure consisting of 4-quinazolinamine (Fig. 1a, green), which is often found in kinase inhibitors. […] The phosphoinositide (PI) system is a crucial regulatory mechanism in membrane trafficking and is tightly regulated through phosphorylation cascades by multiple phosphatidylinositol phosphate kinases (PIPKs)[30]. We hypothesized that UNI418 may inhibit PIPK(s) and performed PIPK profiling analysis. […] To test whether UNI418 interacts with PIP5K1C and PIKfyve, we performed a CETSA, which determines the characteristics of protein stabilization upon ligand binding to the target protein[31]. UNI418- or DMSO-treated cell lysates were incubated at different temperatures, and the presence of the target protein in the soluble fraction was analyzed by Western blotting (Fig. 1c).
(§2) Fig. 1 UNI418 specifically targets PIP5K1 and PIKfyve. a Chemical structure of UNI418. The 4-quinazolinamine core is highlighted in green. b Table of the kinase profiling analysis. Inhibition of several kinases was determined at a 1 μM concentration of UNI418 and analyzed by the SelectScreen Kinase Profiling Service (Thermo Fisher Scientific). c Cellular thermal shift assay. Ectopically expressed GFP-PIP5K1C and GFP-PIKfyve were heated to the indicated temperatures with/without UNI418, and the presence of protein in the soluble fraction was analyzed by Western blot analysis. TEXT PRINTED IN THE PICTURE: (b) UNI418: % Inhibition (mean): 11 ([ATP] Tested (μM): 10; Kinase Tested: PI4K2A (PI4K2 alpha)); % Inhibition (mean): 4 ([ATP] Tested (μM): 10; Kinase Tested: PI4K2B (PI4K2 beta)); % Inhibition (mean): -6 ([ATP] Tested (μM): 10; Kinase Tested: PI4KA (PI4K alpha)); % Inhibition (mean): 48 ([ATP] Tested (μM): Km app; Kinase Tested: PI4KB (PI4K beta)); % Inhibition (mean): 20 ([ATP] Tested (μM): 10; Kinase Tested: PIK3C2B (PI3K-C2 beta)); % Inhibition (mean): 22 ([ATP] Tested (μM): 10; Kinase Tested: PIK3C2G (PI3K-C2 gamma)); % Inhibition (mean): 4 ([ATP] Tested (μM): 100; Kinase Tested: PIK3C3 (hVPS34)); % Inhibition (mean): 8 ([ATP] Tested (μM): 10; Kinase Tested: PIK3CA/PIK3R3 (p110 alpha/p55 gamma)); % Inhibition (mean): 7 ([ATP] Tested (μM): 10; Kinase Tested: PIK3CB/PIK3R2 (p110 beta/p85 beta)); % Inhibition (mean): 9 ([ATP] Tested (μM): 10; Kinase Tested: PIP4K2A); % Inhibition (mean): 67 ([ATP] Tested (μM): 10; Kinase Tested: PIP5K1A); % Inhibition (mean): 93 ([ATP] Tested (μM): 10; Kinase Tested: PIP5K1B); % Inhibition (mean): 93 ([ATP] Tested (μM): 10; Kinase Tested: PIP5K1C); % Inhibition (mean): 100 ([ATP] Tested (μM): 100; Kinase Tested: PIKFYVE) | (b) Apilimod: % Inhibition (mean): 100 ([ATP] Tested (μM): 100; Kinase Tested: PIKFYVE) […]
(§3) Supplementary Fig. 2 UNI418 inhibits PIP5K1B/C and PIKfyve. a Inhibition graph of PIP5K1 kinases at the 10 point titration with UNI418. IC 50 value of PIP5K1 kinases was analyzed by Thermo Fisher Scientific’s SelectScreen kinase profiling service. b Kd (nM) values of PIP5K1C and PIKfyve inhibition were determined using the Eurofins kinase assay service.
(§4) (1 picture or pasted object on this page, not shown here)

PIP5K1A = PIP5K1A (Homo sapiens, UniProt Q99755); assay: as above; assay type: biochemical
PIP5K1A, sequence (Q99755 whole entry): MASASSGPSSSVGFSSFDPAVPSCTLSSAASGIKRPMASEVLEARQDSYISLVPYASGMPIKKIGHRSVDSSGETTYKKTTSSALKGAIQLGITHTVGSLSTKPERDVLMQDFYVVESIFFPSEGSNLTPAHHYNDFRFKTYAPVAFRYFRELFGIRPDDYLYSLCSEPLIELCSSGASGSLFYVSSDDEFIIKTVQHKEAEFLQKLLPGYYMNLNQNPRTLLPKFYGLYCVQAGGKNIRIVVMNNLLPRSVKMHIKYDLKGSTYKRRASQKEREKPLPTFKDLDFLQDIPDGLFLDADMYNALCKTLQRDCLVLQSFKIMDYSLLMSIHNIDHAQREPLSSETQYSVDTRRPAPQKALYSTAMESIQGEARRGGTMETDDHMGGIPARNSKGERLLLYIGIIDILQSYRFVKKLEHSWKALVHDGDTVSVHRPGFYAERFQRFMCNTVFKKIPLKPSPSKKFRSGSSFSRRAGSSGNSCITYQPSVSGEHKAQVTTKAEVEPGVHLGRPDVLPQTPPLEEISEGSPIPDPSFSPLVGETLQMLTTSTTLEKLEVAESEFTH
Excerpt: as §1, §2, §3, §4

PIP5K1C = PIP5K1C (Homo sapiens, UniProt O60331); assay: as above; assay type: biochemical
PIP5K1C, sequence (O60331 whole entry): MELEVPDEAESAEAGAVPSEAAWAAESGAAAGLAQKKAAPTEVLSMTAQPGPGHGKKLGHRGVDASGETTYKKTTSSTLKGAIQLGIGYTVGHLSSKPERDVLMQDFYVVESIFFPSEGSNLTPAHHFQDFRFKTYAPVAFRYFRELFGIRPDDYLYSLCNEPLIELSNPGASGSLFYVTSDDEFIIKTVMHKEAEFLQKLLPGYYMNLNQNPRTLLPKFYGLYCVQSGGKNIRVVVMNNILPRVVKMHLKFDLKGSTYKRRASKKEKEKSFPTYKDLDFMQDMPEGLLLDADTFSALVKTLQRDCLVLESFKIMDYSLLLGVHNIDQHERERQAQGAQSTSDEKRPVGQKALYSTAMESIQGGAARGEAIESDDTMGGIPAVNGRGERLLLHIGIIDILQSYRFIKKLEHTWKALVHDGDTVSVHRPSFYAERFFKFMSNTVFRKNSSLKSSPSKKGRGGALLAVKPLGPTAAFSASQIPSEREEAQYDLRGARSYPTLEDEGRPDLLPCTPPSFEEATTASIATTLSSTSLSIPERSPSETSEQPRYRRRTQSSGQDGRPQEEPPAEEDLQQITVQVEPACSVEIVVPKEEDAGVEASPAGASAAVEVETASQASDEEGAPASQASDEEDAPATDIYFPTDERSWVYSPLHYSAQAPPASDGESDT
Excerpt: as §1, §2, §3, §4

c1ccc(-c2cc(Nc3nc(-c4ccncc4)nc4ccccc34)n[nH]2)cc1 [UNI418, N -(5-phenyl-1 H -pyrazol-3-yl)-2-(4-pyridinyl)-4-quinazolinamine]
levels of PtdIns(4,5)P2 (RPE1 cells): reduced | IC50 (PIP5K1B): 60.7 nM | inhibition at 1 µM (PIP5K1B; 1 μM UNI418, [ATP] 10 μM): 93% | IC50 (PIP5K1A): 255 nM | inhibition at 1 µM (PIP5K1A; 1 μM UNI418, [ATP] 10 μM): 67% | IC50 (PIP5K1C): 60.1 nM | inhibition at 1 µM (PIP5K1C; 1 μM UNI418, [ATP] 10 μM): 93%

Source: PMC11372076, “A dual inhibitor of PIP5K1C and PIKfyve prevents SARS-CoV-2 entry into cells” (Experimental & Molecular Medicine, 2024)
